Legend:
[1] = test system: BT474 cells; test: Cellular proliferation in BT474 cells (CellTiter Glo); assay type: cell-based, human; settings: 120 h, redosed after 72 h
Experimental: (§1) In addition to the engineered cell lines, the following cell lines were used: BT474 (human breast carcinoma), N87 (human gastric carcinoma), NCI-H1781 (human lung adenocarcinoma), and A431 (human epidermoid carcinoma); all cell lines were obtained from the American Type Culture Collection (ATCC, Manassas, VA). NCI-H1781 were grown in complete RPMI 1640 (Life Technologies, Carlsbad, CA) supplemented with 15% fetal bovine serum (FBS, Life Technologies, Carlsbad, CA) and 1% Penicillin-Streptomycin (P/S, Life Technologies, Carlsbad, CA). N87 cells were grown in complete RPMI 1640 supplemented with 10% FBS and 1% P/S. BT474 and A431 cells were grown in DMEM (Life Technologies, Carlsbad, CA) supplemented with 10% FBS and 1% P/S. All cells were maintained and propagated in a humidified 5% CO2 incubator at 37° C.
(§2) Cell proliferation in adherent cells was investigated in two HER2 amplified cell lines (BT474, N87), and a HER2VC expressing cell line (NCI-H1781). BT474, NCI-H1781, and N87 were plated in their appropriate growth media supplemented with either 10% FBS (BT474, N87) or 15% FBS (NCI-H1781) and 1% P/S in 96-well white clear-bottom tissue culture plates (Costar, Sigma-Aldrich). The starting cell densities were 3500, 5500, and 5000 cells for BT474, NCI-H1781, and N87 cells, respectively. An 8-point standard curve with varying cell densities (starting at 50000 cells and serially diluting down 2-fold) was prepared for each cell line and read 6 h after plating. Cells were allowed to attach overnight prior to compound treatment. Compound solutions were prepared by serially diluting test compounds in DMSO (Sigma-Aldrich), then diluting 500× in their corresponding serum free media. Cells were treated by adding a 1:1 volume of test compound to a final concentration of […], 0.004, 0.0014, or 0.0005 μM, in 0.1% DMSO and 5% FBS (for BT474 and N87) or 7.5% FBS (NCI-H1781). In BT474 and NCI-H1781, cell media was replaced and cells were redosed with fresh test compound solutions after 72 h. Viability was determined by CellTiter Glo (Promega, Madison, WI) after 72 h for N87 cells, and after 120 h for BT474 and […] cells. The results were converted to cell numbers using a standard curve; growth inhibition (GI50 values) were determined by Graph Pad Prism. […] The results are provided in Table 4, under columns titled “BT474-GI50”, “N87-GI50”, and “NCI-H1781-GI50”.

[2] = test system: NCI-H1781 cells; test: Cellular proliferation in NCI-H1781 cells (CellTiter Glo); assay type: cell-based, human; settings: 120 h, redosed after 72 h
Experimental: as §1, §2

[3] = target: HER2YVMA (Homo sapiens, UniProt P04626, INS775YVMA); test: Enzymatic assay HER2YVMA (method b); assay type: biochemical; design: purchased Viva biotech, Shanghai, China custom purification; settings: [HER2YVMA]=5 nM, [ATP]=25 μM, [Peptide 22]=1 μM
Summary of the method: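 Microfluidic mobility-shift kinase assay with Peptide 22 (1 μM) in HEPES pH 7.5, MnCl2, MgCl2, Tween 20, TCEP. HER2 WT 12.5 nM and HER2 YVMA 5 nM each used 25 μM ATP; EGFR WT 2 nM used 1 mM ATP. IC50 came from initial-velocity (0–3600 s) percent inhibition, fitted to a variable-slope model.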

[4] = Homo sapiens, BT-474, BT474 cells
[5] = Homo sapiens, NCI-H1781, NCI-H1781 cells

Chain of HER2YVMA (P04626 with tags, fused parts or gaps INS775YVMA): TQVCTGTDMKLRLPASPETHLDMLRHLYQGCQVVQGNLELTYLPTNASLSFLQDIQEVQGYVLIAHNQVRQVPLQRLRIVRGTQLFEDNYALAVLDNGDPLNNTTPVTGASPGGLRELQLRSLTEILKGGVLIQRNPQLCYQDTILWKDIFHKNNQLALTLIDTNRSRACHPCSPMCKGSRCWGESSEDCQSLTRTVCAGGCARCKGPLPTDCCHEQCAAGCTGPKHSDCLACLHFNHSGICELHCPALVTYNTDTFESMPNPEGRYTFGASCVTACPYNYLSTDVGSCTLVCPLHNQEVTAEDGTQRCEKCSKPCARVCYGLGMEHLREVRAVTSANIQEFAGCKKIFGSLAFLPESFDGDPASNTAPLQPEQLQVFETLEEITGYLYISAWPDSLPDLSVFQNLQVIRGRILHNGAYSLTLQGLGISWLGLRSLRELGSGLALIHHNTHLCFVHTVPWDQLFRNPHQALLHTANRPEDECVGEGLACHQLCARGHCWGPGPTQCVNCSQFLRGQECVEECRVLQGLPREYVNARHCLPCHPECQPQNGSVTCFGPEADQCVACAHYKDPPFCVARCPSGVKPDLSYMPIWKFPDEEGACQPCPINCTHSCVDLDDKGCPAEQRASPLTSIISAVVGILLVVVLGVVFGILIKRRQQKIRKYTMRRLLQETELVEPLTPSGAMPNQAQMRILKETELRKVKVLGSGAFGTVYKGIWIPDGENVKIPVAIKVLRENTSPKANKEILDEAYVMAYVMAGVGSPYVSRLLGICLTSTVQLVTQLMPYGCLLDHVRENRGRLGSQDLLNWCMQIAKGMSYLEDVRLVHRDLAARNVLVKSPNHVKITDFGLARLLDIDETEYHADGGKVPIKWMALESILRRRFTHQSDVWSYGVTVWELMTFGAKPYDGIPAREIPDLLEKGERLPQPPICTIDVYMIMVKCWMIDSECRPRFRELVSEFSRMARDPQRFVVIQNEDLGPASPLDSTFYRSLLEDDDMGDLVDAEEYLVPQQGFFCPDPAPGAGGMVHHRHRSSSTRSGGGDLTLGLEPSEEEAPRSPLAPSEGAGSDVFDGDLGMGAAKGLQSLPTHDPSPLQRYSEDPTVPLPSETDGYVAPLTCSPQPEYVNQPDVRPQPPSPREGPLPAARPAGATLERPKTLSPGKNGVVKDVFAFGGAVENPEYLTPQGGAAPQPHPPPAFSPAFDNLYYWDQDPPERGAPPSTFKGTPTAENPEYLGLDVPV

Row | Compound | GI50 [1, 4] [nM] | GI50 [2, 5] [nM] | IC50 [3] [nM] | GI50 ([1]; BT474 cells) [nM] | GI50 ([2]; NCI-H1781 cells) [nM]
1 | Cc1ccc(Oc2ccc(Nc3ncnc4sc5c(c34)CCN(C(=O)/C=C/CN(C)C(C)(C)C)C5)cc2C)cn1 [Compound 33] | < 100 | < 100 | < 100 | – | –
2 | Cc1ccc(Oc2ccc(Nc3ncnc4sc5c(c34)CCN(C(=O)/C=C/CN3CC4C(CO)C4C3)C5)cc2C)cn1 (centres unmarked) [Compound 34] | < 100 | < 100 | < 100 | – | –
3 | Cc1ccc(Oc2ccc(Nc3ncnc4sc5c(c34)CCN(C(=O)/C=C/CN3CCCOCC3)C5)cc2C)cn1 [Compound 42] | < 100 | < 100 | < 100 | – | –
4 | O=C(/C=C/CN1CC2CC1CO2)N1CCc2c(sc3ncnc(Nc4ccc(Oc5ccc6ncnn6c5)c(Cl)c4)c23)C1 (centres unmarked) [Compound 87] | – | – | < 100 | – | –
5 | O=C(/C=C/CN1CC2CCC(C2)C1)N1CCc2c(sc3ncnc(Nc4ccc(Oc5ccc6ncnn6c5)c(Cl)c4)c23)C1 [Compound 88] | – | – | < 100 | – | –
6 | CN(C/C=C/C(=O)N1CCc2c(sc3ncnc(Nc4ccc(Oc5ccc6ncnn6c5)c(Cl)c4)c23)C1)C(C)(C)C [Compound 91] | – | – | < 100 | – | –
7 | O=C(/C=C/CN1CC2C(CO)C2C1)N1CCc2c(sc3ncnc(Nc4ccc(Oc5ccc6ncnn6c5)c(Cl)c4)c23)C1 (centres unmarked) [Compound 92] | – | – | < 100 | – | –
8 | C=CC(=O)N1CCc2[nH]c3ncnc(Nc4ccc(Oc5ccc(C)nc5)c(C)c4)c3c2C1 [Compound 94, 1-(4-((3-methyl-4-((6-methylpyridin-3-yl)oxy)phenyl)amino)-7,8-dihydro-5H-pyrido[3′,4′:4,5]pyrrolo[2,3-d]pyrimidin-6(9H)-yl)prop-2-en-1-one] | – | – | < 100 | – | –
9 | COc1ccc(Oc2ccc(Nc3ncnc4sc5c(c34)CCN(C(=O)/C=C/CN(C)C)C5)cc2C)cn1 [Compound 95, (E)-4-(Dimethylamino)-1-(4-((4-((6-methoxypyridin-3-yl)oxy)-3-methylphenyl)amino)-5,6-dihydropyrido[4′,3′:4,5]thieno[2,3-d]pyrimidin-7(8H)-yl)but-2-en-1-one] | < 100 | < 100 | < 100 | – | –
10 | CCOC/C=C/C(=O)N1CCc2c(sc3ncnc(Nc4ccc(Oc5ccc(C)nc5)c(C)c4)c23)C1 [Compound 96, (E)-4-ethoxy-1-(4-((3-methyl-4-((6-methylpyridin-3-yl)oxy)phenyl)amino)-5,8-dihydropyrido[4′,3′:4,5]thieno[2,3-d]pyrimidin-7(6H)-yl)but-2-en-1-one] | – | – | < 100 | – | –
11 | Cc1ccc(Oc2ccc(Nc3ncnc4[nH]c5c(c34)CN(C(=O)/C=C/CN(C)C)CC5)cc2C)cn1 [Compound 97, (E)-4-(dimethylamino)-1-(4-((3-methyl-4-((6-methylpyridin-3-yl)oxy)phenyl)amino)-5,7,8,9-tetrahydro-6H-pyrido[3′,4′:4,5]pyrrolo[2,3-d]pyrimidin-6-yl)but-2-en-1-one] | – | – | < 100 | – | –

Results, then the compound that gave them:

Row | GI50 [1, 4] [nM] | GI50 [2, 5] [nM] | IC50 [3] [nM] | GI50 ([1]; BT474 cells) [nM] | GI50 ([2]; NCI-H1781 cells) [nM] | Compound
12 | < 100 | < 100 | < 100 | – | – | Cc1ccc(Oc2ccc(Nc3ncnc4sc5c(c34)C(C)CN(C(=O)C=CCN(C)C)C5)cc2C)cn1 (single isomer, unassigned) [Compound 105]
13 | – | – | < 100 | < 100 | < 100 | Cc1ccc(Oc2ccc(Nc3ncnc4sc5c(c34)C(C)CN(C(=O)C=CCN(C)C)C5)cc2C)cn1 (single isomer, unassigned) [Compound 106]
14 | < 100 | < 100 | < 100 | – | – | Cc1ccc(Oc2ccc(Nc3ncnc4sc5c(c34)C(C)CN(C(=O)/C=C/CN(C)C)C5)cc2C)cn1 (centres unmarked) [Compound 98, (E)-4-(dimethylamino)-1-(5-methyl-4-((3-methyl-4-((6-methylpyridin-3-yl)oxy)phenyl)amino)-5,8-dihydropyrido[4′,3′:4,5]thieno[2,3-d]pyrimidin-7(6H)-yl)but-2-en-1-one]
15 | < 100 | < 100 | < 100 | – | – | Cc1ccc(Oc2ccc(Nc3ncnc4sc5c(c34)CN(C(=O)/C=C/CN(C)C)C5)cc2C)cn1 [Compound 99, (E)-4-(dimethylamino)-1-(4-((3-methyl-4-((6-methylpyridin-3-yl)oxy)phenyl)amino)-5,7-dihydro-6H-pyrrolo[3′,4′:4,5]thieno[2,3-d]pyrimidin-6-yl)but-2-en-1-one]
16 | < 100 | < 100 | 100 to 1000 | – | – | Cc1ccc(Oc2ccc(Nc3ncnc4sc5c(c34)CCN(C(=O)/C=C/CN(C)C)CC5)cc2C)cn1 [Compound 100, (E)-4-(dimethylamino)-1-(4-((3-methyl-4-((6-methylpyridin-3-yl)oxy)phenyl)amino)-8,9-dihydro-5H-pyrimido[5′,4′:4,5]thieno[2,3-d]azepin-7(6H)-yl)but-2-en-1-one]
17 | – | – | < 100 | – | – | Cc1ccc(Oc2ccc(Nc3ncnc4sc5c(c34)CCCN(C(=O)/C=C/CN(C)C)C5)cc2C)cn1 [Compound 101, (E)-4-(Dimethylamino)-1-(4-((3-methyl-4-((6-methylpyridin-3-yl)oxy)phenyl)amino)-6,7-dihydro-5H-pyrimido[5′,4′:4,5]thieno[2,3-c]azepin-8(9H)-yl)but-2-en-1-one]
18 | – | – | < 100 | – | – | C=CC(=O)N1CCc2[nH]c3ncnc(Nc4ccc(Oc5ccc6ncnn6c5)c(C)c4)c3c2C1 [Compound 102, 1-(4-((4-([1,2,4]triazolo[1,5-a]pyridin-6-yloxy)-3-methylphenyl)amino)-5,7,8,9-tetrahydro-6H-pyrido[3′,4′:4,5]pyrrolo[2,3-d]pyrimidin-6-yl)prop-2-en-1-one]
19 | – | – | < 100 | – | – | Cc1cc(Nc2ncnc3sc4c(c23)CN(C(=O)/C=C/CN(C)C)CC4)ccc1Oc1ccc2ncnn2c1 [Compound 103, (E)-1-(4-((4-([1,2,4]triazolo[1,5-a]pyridin-6-yloxy)-3-methylphenyl)amino)-7,8-dihydropyrido[3′,4′:4,5]thieno[2,3-d]pyrimidin-6(5H)-yl)-4-(dimethylamino)but-2-en-1-one]
20 | – | – | < 100 | – | – | Cc1cc(Nc2ncnc3sc4c(c23)CCN(C(=O)/C=C/CN(C)C)C4)ccc1Oc1ccc2nonc2c1 [Compound 104, (E)-1-(4-((4-(Benzo[c][1,2,5]oxadiazol-5-yloxy)-3-methylphenyl)amino)-5,6-dihydropyrido[4′,3′:4,5]thieno[2,3-d]pyrimidin-7(8H)-yl)-4-(dimethylamino)but-2-en-1-one]
